Data from US20140038920A1, “TFEB PHOSPHORYLATION INHIBITORS AND USES THEREOF” (FONDAZIONE TELETHON, priority 2011, published 2014).

Tested on: ERK
Assay: p-ERK levels in primary hepatocytes (FIG. 21A)
Type: cell-based, mouse
Conditions: primary hepatocytes treated overnight
From the text: Subsequently, cells were lysed and protein extracts were immunoblotted with the indicated antibodies. […] Quantitative PCR (qPCR) of TFEB target genes in primary hepatocytes from control (flox/flox) and Tcfeb−/− (flox/flox; alb-Cre) mice. […] The expression levels are shown as % increased expression of the treated versus the corresponding untreated samples. Values represent means±s.d. of three independent hepatocyte preparations (three mice/genotype). Student's t-test (two tailed) *P-value ≦0.05.

## CCC(=O)N1CCN(c2ccc(-n3c(=O)ccc4cnc5ccc(-c6cnc7ccccc7c6)cc5c43)cc2C(F)(F)F)CC1 [TORIN 1]
  levels of p-ERK: unaffected
